Experimental data published in patent publication US7932270B2 (Cytokinetics, Inc., priority 2006, dated 2011).

Target: T1, chicken gizzard smooth muscle myosin subfragment-1 chemically crosslinked to cardiac or skeletal actin (Gallus gallus, UniProt P10587)
T1 construct: chicken gizzard smooth muscle myosin subfragment-1; from tissue; host or cells: chicken gizzard
Test: Smooth muscle myosin ATPase dose response assay (pyruvate kinase/horseradish peroxidase/pyruvate oxidase-coupled, amplex red fluorescence)
Type: biochemical
Conditions: read-out: IC50 Arithmetic Mean
Procedure: In Vitro Model of Dose Dependent Smooth Muscle Myosin ATPase Modulation
Screening assays were performed using a pyruvate kinase and lactate dehydrogenase-coupled ATPase assay containing the following reagents: Potassium PIPES (50 mM), MgCl2 (3 mM), KCl (100 mM), ATP (0.15 mM), DTT (1 mM), BSA (0.1 mg/ml), NADH (0.5 mM), PEP (1.5 mM), pyruvate kinase (4 U/ml), lactate dehydrogenase (8 U/ml), and antifoam (50 ppm) (concentrations expressed are final assay concentrations). The pH was adjusted to 6.80 at 22° C. by addition of potassium hydroxide. Lead optimization assays were performed with a more sensitive pyruvate kinase/horseradish peroxidase/pyruvate oxidase-coupled ATPase assay containing the following reagents: Potassium PIPES (12 mM), MgCl2 (2 mM), KCl (100 mM), ATP (0.15 mM), BSA (0.05 mg/ml), potassium phosphate (2 mM), amplex red (0.1 mM), PEP (0.1 mM), pyruvate kinase (4 U/ml), horseradish peroxidase (0.5 U/ml), pyruvate oxidase (0.5 U/ml), and antifoam (50 ppm) (concentrations expressed are final assay concentrations). The pH was adjusted to 7.00 at 22° C. by addition of potassium hydroxide.
The protein components specific to this assay are chicken gizzard smooth muscle myosin subfragment-1 that has been chemically crosslinked to either cardiac or skeletal actin using an excess of 1-Ethyl-3-[3-dimethylaminopropyl]carbodiimide hydrochloride and N-hydroxysuccinimide. The exact concentration of the crosslinked smooth muscle myosin in the assay is determined empirically, by titration to achieve a desired rate of ATP hydrolysis. The concentration varies between protein preparations due to variations in the fraction of active molecules in each preparation.
Compound dose response assays are performed by first preparing a dilution series of test compound, each with an assay mixture containing potassium PIPES, MgCl2, KCl, ATP, BSA, potassium phosphate, amplex red, PEP, crosslinked smooth muscle actomyosin (subfragment-1), antifoam, and water. The assay is started by adding an equal volume of solution containing potassium Pipes, MgCl2, KCl, BSA, potassium phosphate, pyruvate kinase, horseradish peroxidase, pyruvate oxidase, antifoam, and water. ATP hydrolysis is monitored by measuring the fluorescence of amplex red (excitation at 480 nm, emission at 615 nm). The resulting dose response curve is fit by the 4 parameter equation y=Bottom+((Top-Bottom)/(1+((IC50/X)^Hill))). The IC50 is defined as the concentration at which ATPase activity is midway between the top and bottom of the dose response curve.

T1 sequence (P02607 2-151): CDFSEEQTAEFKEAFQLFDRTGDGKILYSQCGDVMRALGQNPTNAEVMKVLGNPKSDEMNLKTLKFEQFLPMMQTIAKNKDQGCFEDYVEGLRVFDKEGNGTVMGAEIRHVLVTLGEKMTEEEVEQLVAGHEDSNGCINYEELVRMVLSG
T1 sequence (P10587 84-789): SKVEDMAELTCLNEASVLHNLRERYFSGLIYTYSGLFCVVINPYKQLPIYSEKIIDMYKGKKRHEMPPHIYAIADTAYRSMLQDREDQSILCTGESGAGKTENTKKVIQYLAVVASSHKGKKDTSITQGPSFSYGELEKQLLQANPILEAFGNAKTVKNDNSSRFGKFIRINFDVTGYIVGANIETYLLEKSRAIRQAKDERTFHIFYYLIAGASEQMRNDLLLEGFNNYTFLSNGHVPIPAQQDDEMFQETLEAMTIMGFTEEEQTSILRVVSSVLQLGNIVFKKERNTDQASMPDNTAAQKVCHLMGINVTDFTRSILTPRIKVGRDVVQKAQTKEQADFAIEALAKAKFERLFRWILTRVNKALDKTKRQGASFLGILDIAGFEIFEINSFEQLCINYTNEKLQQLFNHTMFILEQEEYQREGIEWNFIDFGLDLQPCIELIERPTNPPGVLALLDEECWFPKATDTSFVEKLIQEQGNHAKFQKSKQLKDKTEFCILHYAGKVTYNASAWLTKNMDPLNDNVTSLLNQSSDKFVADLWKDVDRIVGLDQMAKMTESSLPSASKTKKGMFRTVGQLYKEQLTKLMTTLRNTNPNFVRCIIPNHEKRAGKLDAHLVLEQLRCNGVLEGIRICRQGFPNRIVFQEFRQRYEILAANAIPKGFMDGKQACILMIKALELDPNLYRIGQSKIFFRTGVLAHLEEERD

SMILES	IC50
NC(=O)CNC(=O)c1ccc(-c2ccccc2)nc1NCCc1ccccc1 [N-(carbamoylmethyl){6-phenyl-2-[(2-phenylethyl)amino](3-pyridyl)}carboxamide]	0.81 µM
O=C(NCc1ccsc1)c1ccc(-c2ccccc2)nc1NCCc1ccccn1 [{6-phenyl-2-[(2-(2-pyridyl)ethyl)amino](3-pyridyl)}-N-(3-thienylmethyl)carboxamide]	0.683 µM
CC(C)(C)OC(=O)NC[C@H](NC(=O)c1ccc(-c2ccccc2C#N)nc1NCCc1cccc(F)c1)C(=O)O [(2S)-3-[(tert-butoxy)carbonylamino]-2-[(6-(2-cyanophenyl)-2-{[2-(3-fluorophenyl)ethyl]amino}(3-pyridyl))carbonylamino]propanoic acid]	30.4 µM
Cn1cc(-c2nc(NCCc3cccc(F)c3)c(C(=O)NC[C@H]3CCCN3C(=O)[C@@H](N)CCCN)cc2F)cn1 [N-{[(2R)-1-((2S)-2,5-diaminopentanoyl)pyrrolidin-2-yl]methyl}(5-fluoro-2-{[2-(3-fluorophenyl)ethyl]amino}-6-(1-methylpyrazol-4-yl)(3-pyridyl))carboxamide]	0.078 µM
Cn1cc(-c2nc(NCCc3cccc(F)c3)c(C(=O)NCc3cccnc3)cc2C#N)cn1 [(5-cyano-2-{[2-(3-fluorophenyl)ethyl]amino}-6-(1-methylpyrazol-4-yl)(3-pyridyl))-N-(3-pyridylmethyl)carboxamide]	0.021 µM
CC(C)(C)OC(=O)N[C@@H](CCCN)C(=O)N1CC[C@@H]1CNC(=O)c1ccc(-c2ccccc2C#N)nc1NCCc1cccc(F)c1 [N-[2-((2R)-2-([(6-(2-cyanophenyl)-2-{[2-(3-fluorophenyl)ethyl]amino}(3-pyridyl))carbonylamino]methyl}azetidinyl)(1S)-1-(3-aminopropyl)-2-oxoethyl](tert-butoxy)carboxamide]	1.35 µM
O=C(NC[C@H]1CCCN1C(=O)CO)c1ccc(-c2cn[nH]c2)nc1NCCc1cccc(F)c1 [N-{[(2R)-1-(2-hydroxyacetyl)pyrrolidin-2-yl]methyl}(2-{[2-(3-fluorophenyl)ethyl]amino}-6-pyrazol-4-yl(3-pyridyl))carboxamide]	1.19 µM
N#Cc1ccccc1-c1nc(NCCc2cccc(F)c2)c(C(=O)NCc2cccnc2)cc1C#N [(5-cyano-6-(2-cyanophenyl)-2-{[2-(3-fluorophenyl)ethyl]amino}(3-pyridyl))-N-(3-pyridylmethyl)carboxamide]	0.318 µM
C=CCNC(=O)c1ccc(-c2ccccc2)nc1NCCc1ccccn1 [{6-phenyl-2-[(2-(2-pyridyl)ethyl)amino](3-pyridyl)}-N-prop-2-enylcarboxamide]	3.12 µM
COC(=O)N1CC[C@@H]1CNC(=O)c1ccc(-c2cn[nH]c2)nc1NCCc1cccc(F)c1 [methyl (2R)-2-{[(2-{[2-(3-fluorophenyl)ethyl]amino}-6-pyrazol-4-yl(3-pyridyl))carbonylamino]methyl}azetidinecarboxylate]	0.245 µM
O=C(NCc1cccnc1)c1ccc(-c2cccc(CO)c2)nc1NCCc1cccc(F)c1 [(2-{[2-(3-fluorophenyl)ethyl]amino}-6-[3-(hydroxymethyl)phenyl](3-pyridyl))-N-(3-pyridylmethyl)carboxamide]	0.281 µM
Cn1cc(-c2nc(NCCc3cccc(F)c3)c(C(=O)NCC(CO)CO)cc2F)cn1 [(5-fluoro-2-{[2-(3-fluorophenyl)ethyl]amino}-6-(1-methylpyrazol-4-yl)(3-pyridyl))-N-[3-hydroxy-2-(hydroxymethyl)propyl]carboxamide]	0.134 µM
Cn1cc(-c2nc(NCCc3cccc(F)c3)c(C(=O)NC[C@H]3CCCN3C(=O)CCNC(=O)OC(C)(C)C)cc2F)cn1 [N-[((2R)-1-{3-[(tert-butoxy)carbonylamino]propanoyl}pyrrolidin-2-yl)methyl](5-fluoro-2-{[2-(3-fluorophenyl)ethyl]amino}-6-(1-methylpyrazol-4-yl)(3-pyridyl))carboxamide]	0.505 µM
Cn1cc(-c2ccc(C(=O)NC[C@H]3CNCC(=O)N3CCCN)c(NCCc3cccc(F)c3)n2)cn1 [N-{[(2R)-1-(3-aminopropyl)-6-oxopiperazin-2-yl]methyl}(2-{[2-(3-fluorophenyl)ethyl]amino}-6-(1-methylpyrazol-4-yl)(3-pyridyl))carboxamide]	3.56 µM
O=C(NCc1cccnc1)c1ccc(-c2ccccc2)nc1NCC(O)c1ccccc1 (stereo not drawn) [{2-[(2-hydroxy-2-phenylethyl)amino]-6-phenyl(3-pyridyl)}-N-(3-pyridylmethyl)carboxamide]	1.94 µM

Second part, the compound after the results:

IC50	SMILES
12.2 µM	CN(C)CCCNC(=O)CNC(=O)c1ccc(-c2ccccc2C#N)nc1NCCc1cccc(F)c1 [N-[3-(dimethylamino)propyl]-2-[(6-(2-cyanophenyl)-2-{[2-(3-fluorophenyl)ethyl]amino}(3-pyridyl))carbonylamino]acetamide]
1.64 µM	COC(=O)[C@H](CNC(=O)c1ccc(-c2ccccc2C#N)nc1NCCc1cccc(F)c1)NC(C)=O [methyl (2S)-2-(acetylamino)-3-[(6-(2-cyanophenyl)-2-{[2-(3-fluorophenyl)ethyl]amino}(3-pyridyl))carbonylamino]propanoate]
0.047 µM	Cn1cc(-c2ccc(C(=O)NCc3cccnc3)c(NCCc3cccc(F)c3)n2)c(C#N)n1 [(6-(3-cyano-1-methylpyrazol-4-yl)-2-{[2-(3-fluorophenyl)ethyl]amino}(3-pyridyl))-N-(3-pyridylmethyl)carboxamide]
0.376 µM	N#Cc1ccccc1-c1ccc(C(=O)NC[C@H]2CCC(=O)N2CCCCN2C(=O)c3ccccc3C2=O)c(NCCc2cccc(F)c2)n1 [N-({(2R)-1-[4-(1,3-dioxobenzo[c]azolin-2-yl)butyl]-5-oxopyrrolidin-2-yl}methyl)(6-(2-cyanophenyl)-2-{[2-(3-fluorophenyl)ethyl]amino}(3-pyridyl))carboxamide]
0.444 µM	N#Cc1ccccc1-c1ccc(C(=O)NCCNCCN)c(NCCc2cccc(F)c2)n1 [N-{2-[(2-aminoethyl)amino]ethyl}(6-(2-cyanophenyl)-2-{[2-(3-fluorophenyl)ethyl]amino}(3-pyridyl))carboxamide]
0.022 µM	N#Cc1ccccc1-c1ccc(C(=O)NCc2cccnc2)c(NCCc2cccc(F)c2F)n1 [(2-{[2-(2,3-difluorophenyl)ethyl]amino}-6-(2-cyanophenyl)(3-pyridyl))-N-(3-pyridylmethyl)carboxamide]
0.186 µM	COC(=O)[C@H](C)CNC(=O)c1ccc(-c2ccccc2C#N)nc1NCCc1cccc(F)c1 [methyl (2R)-3-[(6-(2-cyanophenyl)-2-{[2-(3-fluorophenyl)ethyl]amino}(3-pyridyl))carbonylamino]-2-methylpropanoate]
0.047 µM	N#Cc1ccccc1-c1ccc(C(=O)NC[C@H]2CCCN2C(=O)CCN)c(NCCc2cccc(F)c2)n1 [N-{[(2R)-1-(3-aminopropanoyl)pyrrolidin-2-yl]methyl}(6-(2-cyanophenyl)-2-{[2-(3-fluorophenyl)ethyl]amino}(3-pyridyl))carboxamide]
0.512 µM	N#Cc1ccccc1-c1nc(NCCc2cccc(F)c2)c(C(=O)NCc2cccnc2)cc1Cl [(5-chloro-6-(2-cyanophenyl)-2-{[2-(3-fluorophenyl)ethyl]amino}(3-pyridyl))-N-(3-pyridylmethyl)carboxamide]
2.05 µM	C[N+]1(C)CCC[C@@H]1CNC(=O)c1ccc(-c2ccccc2C#N)nc1NCCc1cccc(F)c1
1.46 µM	C[C@@H](CNC(=O)c1ccc(-c2ccccc2C#N)nc1NCCc1cccc(F)c1)NC(=O)CN
0.178 µM	N#Cc1ccccc1-c1ccc(C(=O)NC[C@H]2CCCCN2S(=O)(=O)CCN)c(NCCc2cccc(F)c2)n1 [N-({(2R)-1-[(2-aminoethyl)sulfonyl](2-piperidyl)}methyl)(6-(2-cyanophenyl)-2-{[2-(3-fluorophenyl)ethyl]amino}(3-pyridyl))carboxamide]
1.8 µM	C[C@@H](CNC(=O)c1cc(F)c(-c2cnn(C)c2)nc1NCCc1cccc(F)c1)NC(=O)CN
0.042 µM	N#Cc1ccccc1-c1ccc(C(=O)NC[C@H]2CCC(=O)N2CCCN)c(NCCc2cccc(F)c2)n1 [N-{[(2R)-1-(3-aminopropyl)-5-oxopyrrolidin-2-yl]methyl}(6-(2-cyanophenyl)-2-{[2-(3-fluorophenyl)ethyl]amino}(3-pyridyl))carboxamide]
0.963 µM	N#Cc1ccccc1-c1ccc(C(=O)NCC2CCNC2)c(NCCc2cccc(F)c2)n1 (stereo not drawn) [(6-(2-cyanophenyl)-2-{[2-(3-fluorophenyl)ethyl]amino}(3-pyridyl))-N-(pyrrolidin-3-ylmethyl)carboxamide]
